Counter-ions that a name gives are not always drawn.
Test system: MTT (mouse pheochromocytoma)
Assay: IC50 of cell viability (ATP content)
Conditions: (24 or 48 h)
Outline: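 The IC50 was fitted with a four-parameter logistic equation to normalised CellTiter-Glo ATP luminescence from MTT mouse pheochromocytoma cells. These cells, in white 1536-well plates, had been treated for 24 or 48 hrs with library compounds at 8 final concentrations between 0.5 nM and 46 µM, and luminescence was read after 15 minutes. Positive-control wells served as 100% and DMSO wells as 0%.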

SMILES	IC50 of cell viability
CC1=C(/C=C/C(C)=C/C=C/C(C)=C/C=C/C=C(C)/C=C/C=C(C)/C=C/C2=C(C)C(=O)CCC2(C)C)C(C)(C)CCC1=O [CANTHAXANTHIN (euglenanone)]	> 46 µM
NCC(O)c1ccc(O)cc1 (racemic) [DL-OCTOPAMINE]	> 46 µM
Cl.CN1CCCC(CC1)N2\N=C(CC3=CC=C(Cl)C=C3)/C4=CC=CC=C4C2=O (stereo not given) [AZELASTINE HYDROCHLORIDE]	> 46 µM
CC(C)(N)Cc1ccc(Cl)cc1 [Chlorphentermine hydrochloride]	> 46 µM
NC(=O)CC[C@@H](N)C(=O)O [D-GLUTAMINE]	> 46 µM
CCCCCCCCCCCCCCCC(=O)OCC(O)C1OC(=O)C(O)=C1O (stereo not given) [Ascorbyl palmitate]	> 46 µM
O=C(c1ccc(F)cc1)C1CCN(CCn2c(=S)[nH]c3ccccc3c2=O)CC1 [Altanserin hydrochloride]	> 46 µM
O=C(CCCN1CCN2CCCC2C1)c1ccc(F)cc1 (stereo not given) [Azabuperona]	> 46 µM
CN(C)CCC[C@@]1(c2ccc(F)cc2)OCc2cc(C#N)ccc21.O=C(O)C(=O)O [ESCITALOPRAM OXALATE]	> 46 µM
COc1ccc(Cc2nccc3cc(OC)c(OC)cc23)cc1OC [Papaverine hydrochloride]	> 46 µM
CC1(C)CC/C(=C\c2ccc(Cl)cc2)C1(O)Cn1cncn1 (stereo not given) [Triticonazole]	> 46 µM
CC1(C)CC1C(=O)N/C(=C/CCCCSCC(N)C(=O)[O][Na])C(=O)O (stereo not given) [CILASTATIN SODIUM]	> 46 µM
CCC[C@@H]1O[C@@H]2C[C@@H]3[C@@H]4CC\C5=C\C(=O)\C=C/[C@@]5(C)[C@H]4[C@H](O)C[C@@]3(C)[C@]2(O1)C(=O)CO [Budesonide]	> 46 µM
CCOC(=O)c1cnc2cc(OCC(C)C)c(OCC(C)C)cc2c1O [BUQUINOLATE]	> 46 µM
CC(C)(C)OC(=O)c1ncn2c1[C@@H]1CCCN1C(=O)c1c(Br)cccc1-2 [Bretazenil]	> 46 µM
C[C@@](Cc1ccc(O)c(O)c1)(NN)C(=O)O [CARBIDOPA]	> 46 µM
O=c1oc2c(O)c(O)cc3c(=O)oc4c(O)c(O)cc1c4c23 [ELLAGIC ACID]	> 46 µM
OC(CN1CCC(Cc2ccc(F)cc2)CC1)c1ccc(Cl)cc1 (stereo not given) [Eliprodil]	> 46 µM
C=CC1=C(C(=O)O)N2C(=O)[C@@H](NC(=O)C(N=O)c3csc(N)n3)[C@H]2SC1 (stereo not given in full) [Cefdinir]	> 46 µM
O=C(O)CSCC(=O)NC1CCSC1=O (stereo not given) [Erdosteine]	> 46 µM
O=C1c2c(O)cccc2Cc2cccc(O)c21 [Anthralin]	> 46 µM
CN(C)CCc1c[nH]c2ccc(O)cc12 [Bufotenine]	> 46 µM
CCC[C@H]1C[C@H](C(=O)NC(C(C)Cl)C2O[C@@H](SC)C(OP(=O)(O)O)[C@@H](O)[C@@H]2O)N(C)C1 (stereo not given in full) [CLINDAMYCIN PO4]	> 46 µM

More lines, now with the values ahead:

IC50 of cell viability	SMILES
> 46 µM	CNC(=O)[C@H](Cc1c[nH]c2ccccc12)NC(=O)[C@@H](CC(=O)NO)CC(C)C [ILOMASTATUM]
> 46 µM	CC[C@H](c1ccc(O)cc1)[C@@H](CC)c1ccc(O)cc1 [Hexestrol]
> 46 µM	CCCCCCCC(=O)CC[C@H]1[C@@H](C/C=C/CCCC(=O)OC(C)C)[C@@H](O)C[C@H]1O [Unoprostone Isopropyl Ester]
> 46 µM	CC(C)[C@H](N)C(=O)OCC(CO)OC[N]1C=NC2=C1\N=C(\N)NC2=O (stereo not given in full) [VALGANCICLOVIR HYDROCHLORIDE]
> 46 µM	NC(=O)OCC(COC(N)=O)c1ccccc1 [FELBAMATE]
> 46 µM	O=C1[O][Mg]2([O]C(=O)c3ccccc3[O]2)[O]c2ccccc21 [MAGNESIUM SALICYLATE]
> 46 µM	CCCC(C(=O)OCCN(CC)CC)(c1ccccc1)c1ccccc1.Cl [PROADIFEN HYDROCHLORIDE]
> 46 µM	CC1(C)C(/C=C/C=C/C=C/C=C2\N(CCCCS(=O)(=O)[O-])c3ccc4ccccc4c3C2(C)C)=[N+](CCCCS(=O)(=O)[O-])c2ccc3ccccc3c21 [INDOCYANINE GREEN]
> 46 µM	Cc1ncc(CSSCc2cnc(C)c(O)c2CO)c(CO)c1O [PYRITHIOXINE]
> 46 µM	COC1=C(OC)C(=O)C(CCCCCCCCCCO)=C(C)C1=O [Idebenone]
> 46 µM	O=C(O)CCn1c2c(c3ccccc31)C[C@H](N[S+](=O)([O-])c1ccc(F)cc1)CC2 [RAMATROBAN]
> 46 µM	CCCCC/1=N/C2(CCCC2)C(=O)N1CC3=CC=C(C=C3)C4=CC=CC=C4C5=NN=N[NH]5 [IRBESARTAN]
> 46 µM	Cc1ccccc1C(OCCN(C)C)c1ccccc1 (stereo not given) [Orphenadrine citrate salt]
> 46 µM	CC12CC3CC(C)(C1)CC(N)(C3)C2 [MEMANTINE]
> 46 µM	O=C1O[C@H]2[C@@H](OC(O)[C@@H]2O)[C@H]1O (stereo not given in full) [Glucuronolactone]
> 46 µM	O=C(O)CCCc1ccccc1 [SODIUM PHENYLBUTYRATE]
> 46 µM	Cc1onc(-c2ccccc2)c1-c1ccc([S+](N)(=O)[O-])cc1 [VALDECOXIB]
> 46 µM	COCC(=O)Nc1c(I)c(C(=O)NC[C@@H](O)CO)c(I)c(C(=O)N(C)C[C@@H](O)CO)c1I [Iopromide]
> 46 µM	O=C(O)Cn1c(C(=O)Nc2nc(-c3ccccc3Cl)cs2)cc2ccccc21 [LINTITRIPTUM]
> 46 µM	O=C1OC(CO)C(O)C(O)C1O (stereo not given) [GLUCONOLACTONE]
> 46 µM	CCCCc1cc2c(=O)c(C(=O)OC)c[nH]c2cc1OCc1ccccc1 [NEQUINATE]
> 46 µM	N[S+](=O)([O-])c1ccc(NC(=O)CCC(=O)O)cc1 [SULFASUCCINAMIDUM]
> 46 µM	O=C(O)CN(CCN(CC(=O)O)CC(=O)O)CCN(CC(=O)O)CC(=O)O [Pentetic acid]
> 46 µM	OCCN1CCN(CC/C=C2\c3ccccc3Sc3ccc(Cl)cc32)CC1 [Zuclopenthixol hydrochloride]
> 46 µM	Cc1ccc(C(=O)Nc2ccc(S(=O)(=O)O)c3cc(S(=O)(=O)O)cc(S(=O)(=O)O)c23)cc1NC(=O)c1cccc(NC(=O)Nc2cccc(C(=O)Nc3cc(C(=O)Nc4ccc(S(=O)(=O)O)c5cc(S(=O)(=O)O)cc(S(=O)(=O)O)c45)ccc3C)c2)c1 [SURAMIN]
> 46 µM	COC1=C(OC(F)F)C=CC(=C1)C/2=N/NC(=O)/C=C2 [Zardaverine]
> 46 µM	C/C1=C2/N=C(C=C3N=C(/C(C)=C4\[N-][C@@H]([C@H](CC(N)=O)[C@]4(C)CCC(=O)NC[C@@H](C)OP(=O)([O-])O[C@@H]4[C@@H](O)[C@H](n5cnc6cc(C)c(C)cc65)O[C@@H]4CO)[C@@]4(C)N=C1[C@H](CCC(N)=O)[C@@]4(C)CC(N)=O)[C@H](CCC(N)=O)C3(C)C)[C@@H](CCC(N)=O)[C@@]2(C)CC(N)=O.[CH3-].[Co+3] [Mecobalamin]

Source: the supplement of paper PMC3974653
